Test results taken from patent publication US10369187B2, “Peptide regulators of JNK family kinases” (Vanderbilt University, priority 2017, dated 2019).

System: ASK1-MKK4/7-JNK3 signaling cascade
Test: In cell JNK3 activation assay (co-expression with HA-ASK1 and HA-JNK3α2, phospho-JNK Western blot)
Assay type: cell-based, African green monkey
Settings: for JNK3 phosphorylation in cells, YFP fusions: YFP fusions co-expressed with JNK3 and ASK1 in COS7 cells
Experimental: COS-7 African green monkey cells were maintained in DMEM supplemented with 10% heat-inactivated FBS (Invitrogen), penicillin, and streptomycin at 37° C. in a humidified incubator with 5% CO2. The cells were plated at 80-90% confluence and transfected using Lipofectamine 2000 (Invitrogen) according to the manufacturer's instructions. Cells were used 48 h post-transfection and serum-starved overnight before experiments.
COS-7 cells were incubated with phosphatase inhibitors (50 mM NaF and 10 mM Na3VO4) in serum-free medium for 15 min at 37° C.; washed with cold PBS; and lysed with SDS lysis buffer containing 1% SDS, 10 mM Tris (pH7.4), 10 mM NaF, 100 μM Na3VO4, 2 mM EDTA, 2 mM benzamidine and 1 mM PMSF. JNKs activity was assayed by Western blotting using an antibody specific for phosphorylated JNK to detect phosphorylated (active) JNKs^17,20,23. Whole cell lysates were boiled for 5 min and centrifuged at 10,000×g for 10 min, and the supernatants were used for Western blotting. Protein was measured using the Bio-Rad Coomassie Blue assay. The proteins were resolved on 8% SD S-PAGE and transferred to PVDF membrane (Millipore, Bedford, Mass.). Blots were incubated with the primary antibodies (Cell Signaling Technology, Inc) anti-phospho-JNK, anti-JNK, anti-HA (6E2) (1:1000 to 1:5000), followed by appropriate HRP-conjugated secondary antibodies. Protein bands were detected by enhanced chemiluminescence (ECL, Pierce), followed by exposure to x-ray film. To quantify phospho-JNKs, serial dilutions of anisomycin (1 μg/ml)-stimulated HEK-A cell lysates were used to ensure that all samples were in linear range. The values for these proteins are expressed in arbitrary units.
The JNK3 activation was next tested in cells (See FIG. 7). COS7 cells were transfected with HA-ASK1, HA-JNK3α2, and YFP-arrestin constructs to measure in cell JNK3α2 activation. Phospho-JNK3 is shown as the uppermost band in the Western analysis, and was analyzed by densitometric quantification using Quantity One software (quantification in bottom panel). […] The data were statistically analyzed by ANOVA with protein as the main factor. Significance of the difference from control (p values) is indicated.
In Cell JNK3 Activation Assay COS7 African green monkey cells were sustained in DMEM solution containing 10% heat-inactivated FBS (Invitrogen), penicillin, and streptomycin at 37° C. and 5% CO2. Cells were transfected at 90-100% confluency in 6-well plates with pcDNA3-HA-ASK1 (0.4 ug), pcDNA3-HA-JNK3α2 (0.2 ug), and pcDNA3-Venus arrestin constructs (0.2-0.6 ug) at a 1:2 ratio of DNA:Lipofectamine 2000 (Invitrogen). At 48 hrs post-transfection, the cells were incubated with phosphatase inhibitors (20 mM NaF and 1 mM Na3VO4) in PBS for 15 mins, washed twice with cold PBS, and lysed using 50 mM Tris (pH 7.8), 2 mM EDTA, 250 mM NaCl, 10% Glycerol, 0.5% NP-40, 2 mM benzamide, and 1 mM PMSF. Protein concentration was measured using the Bio-Rad Quick Start™ Bovine Serum Albumin (BSA) Standard Set. The proteins were subjected to 10% SDS-PAGE and transferred to PVDF membrane (Millipore, Bedford, Mass.). Membranes were incubated with respective primary antibodies (Cell Signaling Technology, Inc.) anti-ASK1 (#3762S), anti-phospho-JNK (#9251), anti-SAPK/JNK (#9252P), anti-GST (#2625), or anti-HA (#3724), followed by the appropriate HRP-conjugated secondary antibodies. Bands were detected by x-ray film using enhanced chemiluminescence (ECL, Pierce) and quantification was done using the software Quantity One (BioRad).

Substance	JNK3 phosphorylation in cells, YFP fusions	in cell JNK3α2 activation (phospho-JNK3 densitometry) (Example 2, YFP/Venus constructs with HA-ASK1, HA-JNK3α2 in COS7 cells)	effect on JNK3 phosphorylation compared with full-length arrestin-3 (YFP fusion co-expressed with JNK3 and ASK1 in COS7 cells)	dose-response curve of JNK3 phosphorylation (varying amounts of YFP-T1A with ASK1 and JNK3)
MGDK-GTRVFKKASPNGKLTVYLGK (MGDKGTRVFKKASPNGKLTVYLGK; N-terminal MGDK; bovine) [B1A, homologous N-terminal peptide from arrestin-2, negative control]	does not function as a scaffold of ASK1-MKK4/7-JNK3 cascade in cells	–	–	–
MGEKPGTRVFKKSSPNCKLTVYLGK (bovine) [T1A, first 25 residues of arrestin-3]	also active	facilitates JNK3 activation	greater than that of full-length arrestin-3	biphasic, with a clear optimum
